Test results as given in US20260297095A1, “NOVEL PYRROLOTRIAZINE DERIVATIVE AND USE THEREOF” (Pelemed Co., Ltd., priority 2024, published 2026).
pIC50: −log10 of the molar value.

Tests used:
YES1 kinase = YES1 kinase (Homo sapiens, UniProt P07947); experiment: YES1 kinase inhibition, ADP Glo assay (Promega); assay type: biochemical; conditions: for pIC50: class symbols, read-out: YES1 enzyme, IC50; for YES1 kinase inhibition at 1 nM (in words) / inhibition at 0.001 µM: compound 1 nM; for inhibition at 0.001 µM: read-out: YES1 enzyme, % inhibition, 1 nM; for inhibition at 0.01 µM: compound 10 nM, read-out: YES1 enzyme, % inhibition, 10 nM; for inhibition at 0.1 µM: compound 100 nM, read-out: YES1 enzyme, % inhibition, 100 nM
YES1 kinase, sequence (P07947 whole entry): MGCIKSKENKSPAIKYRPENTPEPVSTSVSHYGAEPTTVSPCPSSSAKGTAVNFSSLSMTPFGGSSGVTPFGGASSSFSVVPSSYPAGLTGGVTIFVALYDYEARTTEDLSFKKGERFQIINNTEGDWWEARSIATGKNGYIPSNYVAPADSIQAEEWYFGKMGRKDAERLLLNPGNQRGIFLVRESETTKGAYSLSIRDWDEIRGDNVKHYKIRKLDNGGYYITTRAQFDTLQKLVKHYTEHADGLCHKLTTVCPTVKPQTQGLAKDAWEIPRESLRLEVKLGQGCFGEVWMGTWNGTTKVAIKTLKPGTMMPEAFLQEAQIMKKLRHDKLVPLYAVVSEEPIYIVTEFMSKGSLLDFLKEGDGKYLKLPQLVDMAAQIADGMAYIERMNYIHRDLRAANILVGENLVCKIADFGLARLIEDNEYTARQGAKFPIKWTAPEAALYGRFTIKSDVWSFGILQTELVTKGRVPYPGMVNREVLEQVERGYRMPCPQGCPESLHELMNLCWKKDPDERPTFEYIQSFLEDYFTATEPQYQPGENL
Method in brief: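 ADP-Glo luminescence after a 40 min room-temperature reaction of YES1 with ATP and substrate (buffer with MnCl2 and DTT; 10 min compound preincubation) was used as readout. Percent inhibition at 1, 10 and 100 nM compound was calculated relative to negative control after background subtraction, and IC50 values derived.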

[1] = system: KYSE-70 esophageal cancer cell line; experiment: Cell growth inhibition of KYSE-70 (Sulforhodamine B); assay type: cell-based; conditions: Homo sapiens; KYSE-70, 72 hours; read-out: KYSE70 GI50
Method in brief: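 KYSE-70 cells (YES1-amplified) in RPMI-1640 with 10% FBS were seeded 24 h before treatment with compound at 0.0046–10 µM final. After 72 h, cells were TCA-fixed and stained with sulforhodamine B, with absorbance read at 510 nm. GI50 was derived with a time-zero plate set to 0% and the vehicle control to 100%, in duplicate tests.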

Compound	pIC50 (YES1 kinase)	YES1 kinase inhibition at 1 nM (in words) (YES1 kinase)	inhibition at 0.001 µM (YES1 kinase)	inhibition at 0.01 µM (YES1 kinase)	GI50 [1]	inhibition at 0.1 µM (YES1 kinase)
COc1cc(-c2c(C)c(N3CCC(N)CC3)n3ncnc(N)c23)ccc1NC(=O)OC(C)(C)C [Example 74, tert-butyl (4-(4-amino-7-(4-aminopiperidin-1-yl)-6-methylpyrrolo[2,1-f][1,2,4]triazin-5-yl)-2-methoxyphenyl)carbamate]	≥ 7.00	could be inhibited even at a low concentration of 1 nM	43%	66%	≤ 100 nM	–
COc1cc(-c2cc(N3CCC(N)(C(F)(F)F)CC3)n3ncnc(N)c23)ccc1NC(=O)OC(C)(C)C [Example 83, tert-butyl (4-(4-amino-7-(4-amino-4-(trifluoromethyl)piperidin-1-yl)pyrrolo[2,1-f][1,2,4]triazin-5-yl)-2-methoxyphenyl)carbamate]	–	could be inhibited even at a low concentration of 1 nM	14%	24%	100 to 1000 nM	–
COc1cc(-c2cc(N3CC[C@H](N)[C@@H](C(F)(F)F)C3)n3ncnc(N)c23)ccc1NC(=O)OC(C)(C)C [Example 85, tert-butyl (4-(4-amino-7-((3S,4S)-4-amino-3-(trifluoromethyl)piperidin-1-yl)pyrrolo[2,1-f][1,2,4]triazin-5-yl)-2-methoxyphenyl)carbamate]	≥ 7.00	–	–	59%	≤ 100 nM	78%
CN[C@@H]1CCN(c2cc(-c3ccc(NC(=O)OC(C)(C)C)c(OC)c3)c3c(N)ncnn23)C[C@@H]1F [Example 87, tert-butyl (4-(4-amino-7-((3S,4R)-3-fluoro-4-(methylamino)piperidin-1-yl)pyrrolo[2,1-f][1,2,4]triazin-5-yl)-2-methoxyphenyl)carbamate]	≥ 7.00	–	–	61%	≤ 100 nM	80%
COc1cc(-c2cc(N3CCC(C(=O)O)CC3)n3ncnc(N)c23)ccc1NC(=O)OC(C)(C)C [Example 89, 1-(4-amino-5-(4-((tert-butoxycarbonyl)amino)-3-methoxyphenyl)pyrrolo[2,1-f][1,2,4]triazin-7-yl)piperidine-4-carboxylic acid]	–	could be inhibited even at a low concentration of 1 nM	19%	34%	> 10000 nM	–
COc1cc(-c2cc(N3CCC(O)CC3)n3ncnc(N)c23)ccc1NC(=O)OC(C)(C)C [Example 90, tert-butyl (4-(4-amino-7-(4-hydroxypiperidin-1-yl)pyrrolo[2,1-f][1,2,4]triazin-5-yl)-2-methoxyphenyl)carbamate]	–	could be inhibited even at a low concentration of 1 nM	12%	47%	100 to 1000 nM	–
COc1cc(-c2cc(N3CC(C)C(N)C(C)C3)n3ncnc(N)c23)ccc1NC(=O)OC(C)(C)C (stereo not drawn) [Example 91, tert-butyl (4-(4-amino-7-(4-amino-3,5-dimethylpiperidin-1-yl)pyrrolo[2,1-f][1,2,4]triazin-5-yl)-2-methoxyphenyl)carbamate]	–	–	–	21%	100 to 1000 nM	59%
CCNC1CCN(c2cc(-c3ccc(NC(=O)OC(C)(C)C)c(OC)c3)c3c(N)ncnn23)CC1 [Example 92, tert-butyl (4-(4-amino-7-(4-(ethylamino)piperidin-1-yl)pyrrolo[2,1-f][1,2,4]triazin-5-yl)-2-methoxyphenyl)carbamate]	≥ 7.00	–	–	66%	100 to 1000 nM	81%
COc1cc(-c2cc(N3CC4CC(C3)C4N)n3ncnc(N)c23)ccc1NC(=O)OC(C)(C)C (stereo not drawn) [Example 93, tert-butyl (4-(4-amino-7-(6-amino-3-azabicyclo[3.1.1]heptan-3-yl)pyrrolo[2,1-f][1,2,4]triazin-5-yl)-2-methoxyphenyl)carbamate]	–	–	–	14%	100 to 1000 nM	48%
COc1cc(-c2cc(N3CCC(N)C(C)(C)C3)n3ncnc(N)c23)ccc1NC(=O)OC(C)(C)C (stereo not drawn) [Example 94, tert-butyl (4-(4-amino-7-(4-amino-3,3-dimethylpiperidin-1-yl)pyrrolo[2,1-f][1,2,4]triazin-5-yl)-2-methoxyphenyl)carbamate]	≥ 7.00	–	–	41%	≤ 100 nM	78%
COc1cc(-c2cc(CCN3CCC(N(C)C)CC3)n3ncnc(N)c23)ccc1NC(=O)OC(C)(C)C [Example 98, tert-butyl (4-(4-amino-7-(2-(4-(dimethylamino)piperidin-1-yl)ethyl)pyrrolo[2,1-f][1,2,4]triazin-5-yl)-2-methoxyphenyl)carbamate]	–	–	–	65%	≤ 100 nM	90%
CNC1CCN(CCc2cc(-c3ccc(NC(=O)OC(C)(C)C)c(OC)c3)c3c(N)ncnn23)CC1 [Example 99, tert-butyl (4-(4-amino-7-(2-(4-(methylamino)piperidin-1-yl)ethyl)pyrrolo[2,1-f][1,2,4]triazin-5-yl)-2-methoxyphenyl)carbamate]	–	–	–	71%	≤ 100 nM	90%
COc1cc(-c2cc(CCN3CCC(N)CC3)n3ncnc(N)c23)ccc1NC(=O)OC(C)(C)C [Example 100, tert-butyl (4-(4-amino-7-(2-(4-aminopiperidin-1-yl)ethyl)pyrrolo[2,1-f][1,2,4]triazin-5-yl)-2-methoxyphenyl)carbamate]	–	–	–	70%	≤ 100 nM	88%
COc1cc(-c2cc(N3CCC(CC(=O)O)CC3)n3ncnc(N)c23)ccc1NC(=O)OC(C)(C)C [Example 101, 2-(1-(4-amino-5-(4-((tert-butoxycarbonyl)amino)-3-methoxyphenyl)pyrrolo[2,1-f][1,2,4]triazin-7-yl)piperidin-4-yl)acetic Acid]	–	could be inhibited even at a low concentration of 1 nM	16%	40%	> 10000 nM	–
COc1cc(-c2cc(N3CCC(CO)CC3)n3ncnc(N)c23)ccc1NC(=O)OC(C)(C)C [Example 102, tert-butyl (4-(4-amino-7-(4-(hydroxymethyl)piperidin-1-yl)pyrrolo[2,1-f][1,2,4]triazin-5-yl)-2-methoxyphenyl)carbamate]	–	could be inhibited even at a low concentration of 1 nM	11%	39%	100 to 1000 nM	–
COc1cc(-c2cc(N3CCC(NC(C)=O)CC3)n3ncnc(N)c23)ccc1NC(=O)OC(C)(C)C [Example 103, tert-butyl (4-(7-(4-acetamidopiperidin-1-yl)-4-aminopyrrolo[2,1-f][1,2,4]triazin-5-yl)-2-methoxyphenyl)carbamate]	–	–	–	27%	100 to 1000 nM	66%
COc1cc(-c2cc(N3CCC(CN)C(C)(C)C3)n3ncnc(N)c23)ccc1NC(=O)OC(C)(C)C (stereo not drawn) [Example 104, tert-butyl (4-(4-amino-7-(4-(aminomethyl)-3,3-dimethylpiperidin-1-yl)pyrrolo[2,1-f][1,2,4]triazin-5-yl)-2-methoxyphenyl)carbamate]	–	could be inhibited even at a low concentration of 1 nM	33%	45%	100 to 1000 nM	–
